Measured values from ChEMBL document CHEMBL3044676, “Effect of Antibiotics on Formation of Aerial Mycelium and Production of Phytotoxins in Streptomyces spp” (2003).
Calls of active or inactive are those of the source. No cut-off for these calls is given here.

Key:
Streptomyces scabiei [1] = assay: Antimicrobial activity against Streptomyces scabiei ATCC 4917314 assessed as inhibition of aerial mycelial growth at 4 ug/disk after 5 days by paper disk method; format: functional; conditions: for zone of inhibition at 4 µg/disc: ATCC 4917314, 120 h, read-out: DIZ
[2] = system: Streptomyces acidiscabies; assay: Antimicrobial activity against Streptomyces acidiscabies ATCC 4900315 assessed as inhibition of aerial mycelial growth at 4 ug/disk after 5 days by paper disk method; format: functional; conditions: for zone of inhibition at 4 µg/disc: ATCC 4900315, 120 h, read-out: DIZ
[3] = system: Streptomyces acidiscabies; assay: Antimicrobial activity against Streptomyces acidiscabies ATCC 4900315 assessed as inhibition of growth at 4 ug/disk after 5 days by paper disk method; format: functional; conditions: for zone of inhibition at 4 µg/disc: ATCC 4900315, 120 h, read-out: DIZ
[4] = system: Streptomyces acidiscabies; assay: Antimicrobial activity against Streptomyces acidiscabies ATCC 4900315 assessed as inhibition of aerial mycelial growth at 0.04 ug/disk after 5 days by paper disk method; format: functional
Streptomyces scabiei [5] = assay: Antimicrobial activity against Streptomyces scabiei ATCC 4917314 assessed as inhibition of aerial mycelial growth at 0.40 ug/disk after 5 days by paper disk method; format: functional; conditions: for zone of inhibition at 0.4 µg/disc: ATCC 4917314, 120 h, read-out: DIZ
Streptomyces alboniger [6] = assay: Antimicrobial activity against Streptomyces alboniger IFO 12738 assessed as inhibition of aerial mycelial growth at 0.4 ug/disk after 5 days by paper disk method; format: functional; conditions: for zone of inhibition at 0.4 µg/disc: IFO 12738, 120 h, read-out: DIZ
Streptomyces scabiei [7] = assay: Antimicrobial activity against Streptomyces scabiei ATCC 4917314 assessed as inhibition of aerial mycelial growth at 0.04 ug/disk after 5 days by paper disk method; format: functional; conditions: for zone of inhibition at 0.04 µg/disc: ATCC 4917314, 120 h, read-out: DIZ
Streptomyces alboniger [8] = assay: Antimicrobial activity against Streptomyces alboniger IFO 12738 assessed as inhibition of aerial mycelial growth at 0.04 ug/disk after 5 days by paper disk method; format: functional, organism-based
[9] = system: Streptomyces acidiscabies; assay: Antimicrobial activity against Streptomyces acidiscabies ATCC 4900315 assessed as inhibition of aerial mycelial growth at 0.4 ug/disk after 5 days by paper disk method; format: functional; conditions: for zone of inhibition at 0.4 µg/disc: ATCC 4900315, 120 h, read-out: DIZ
Streptomyces alboniger [10] = assay: Antimicrobial activity against Streptomyces alboniger IFO 12738 assessed as inhibition of aerial mycelial growth at 4 ug/disk after 5 days by paper disk method; format: functional; conditions: for zone of inhibition at 4 µg/disc: IFO 12738, 120 h, read-out: DIZ
Streptomyces alboniger [11] = assay: Antimicrobial activity against Streptomyces alboniger IFO 12738 assessed as inhibition of growth at 4 ug/disk after 5 days by paper disk method; format: functional; conditions: IFO 12738, 120 h, read-out: DIZ
Streptomyces scabiei [12] = assay: Antimicrobial activity against Streptomyces scabiei ATCC 4917314 assessed as inhibition of growth at 4 ug/disk after 5 days by paper disk method; format: functional; conditions: ATCC 4917314, 120 h, read-out: DIZ
Streptomyces scabiei [13] = assay: Antimicrobial activity against Streptomyces scabiei ATCC 4917314 assessed as inhibition of growth at 0.4 ug/disk after 5 days by paper disk method; format: functional; conditions: for zone of inhibition at 0.4 µg/disc: ATCC 4917314, 120 h, read-out: DIZ
Streptomyces alboniger [14] = assay: Antimicrobial activity against Streptomyces alboniger IFO 12738 assessed as inhibition of growth at 0.4 ug/disk after 5 days by paper disk method; format: functional; conditions: IFO 12738, 120 h, read-out: DIZ

SMILES	zone of inhibition at 4 µg/disc (Streptomyces scabiei [1])	zone of inhibition at 4 µg/disc [2]	diameter of the inhibition zone (DIZ) [4]	diameter of the inhibition zone (DIZ) (Streptomyces scabiei [5])	diameter of the inhibition zone (DIZ) (Streptomyces alboniger [6])	diameter of the inhibition zone (DIZ) (Streptomyces scabiei [7])	diameter of the inhibition zone (DIZ) (Streptomyces alboniger [8])	diameter of the inhibition zone (DIZ) [9]	zone of inhibition at 0.4 µg/disc (Streptomyces scabiei [5])	diameter of the inhibition zone (DIZ) (Streptomyces alboniger [10])	zone of inhibition at 4 µg/disc (Streptomyces scabiei [12])	zone of inhibition at 0.4 µg/disc [9]	zone of inhibition at 4 µg/disc [3]	also measured
CC1(C)S[C@@H]2[C@H](NC(=O)[C@H](N)c3ccccc3)C(=O)N2[C@H]1C(=O)O [AMPICILLIN]	16 mm	16 mm	inactive	inactive	inactive	inactive	inactive	inactive	–	–	–	–	–	diameter of the inhibition zone (DIZ) [3]: inactive
CN(CC[C@H](N)CC(=O)N[C@H]1CC[C@H](n2ccc(N)nc2=O)O[C@@H]1C(=O)O)C(=N)N [BLASTADIN S]	23 mm	9 mm	inactive	–	inactive	inactive	inactive	inactive	10 mm	inactive	–	–	–	–
O=C(N[C@H](CO)[C@H](O)c1ccc([N+](=O)[O-])cc1)C(Cl)Cl [CHLORAMPHENICOL]	29 mm	10 mm	inactive	–	inactive	inactive	inactive	inactive	13 mm	–	15 mm	–	–	zone of inhibition at 4 µg/disc (Streptomyces alboniger [10]): 44 mm; zone of inhibition at 4 µg/disc (Streptomyces alboniger [11]): 16 mm
CO[C@@H]1[C@H](O)C[C@@H](O[C@@H]2C[C@H](Oc3cc4cc5c(c(O)c4c(O)c3C)C(=O)[C@@H](O[C@H]3C[C@@H](O[C@H]4C[C@@H](O[C@H]6C[C@](C)(O)[C@@H](OC(C)=O)[C@H](C)O6)[C@H](O)[C@@H](C)O4)[C@H](O)[C@@H](C)O3)[C@H]([C@H](OC)C(=O)[C@@H](O)[C@@H](C)O)C5)O[C@H](C)[C@@H]2OC(C)=O)O[C@@H]1C [CHROMOMYCIN A3]	11 mm	26 mm	–	inactive	inactive	inactive	inactive	–	–	inactive	–	19 mm	–	zone of inhibition at 0.04 µg/disc ([4]; ATCC 4900315, 120 h, read-out: DIZ): 13 mm
C[C@@H]1O[C@@H]1P(=O)(O)O [FOSFOMYCIN]	17 mm	–	inactive	–	inactive	–	inactive	inactive	16 mm	inactive	–	–	–	diameter of the inhibition zone (DIZ) [2]: inactive; zone of inhibition at 0.04 µg/disc (Streptomyces scabiei [7]): 16 mm
CO[C@@H]1[C@@H](O[C@@H]2O[C@H](C)[C@@H](O[C@H]3C[C@@](C)(O)[C@@H](OC(=O)CC(C)C)[C@H](C)O3)[C@H](N(C)C)[C@H]2O)[C@@H](CC=O)C[C@@H](C)[C@@H](O)/C=C/C=C/C[C@@H](C)OC(=O)C[C@H]1OC(C)=O [JOSAMYCIN]	29 mm	17 mm	inactive	–	inactive	–	inactive	–	17 mm	–	21 mm	13 mm	10 mm	zone of inhibition at 4 µg/disc (Streptomyces alboniger [10]): 15 mm; zone of inhibition at 4 µg/disc (Streptomyces alboniger [11]): 14 mm; zone of inhibition at 0.04 µg/disc (Streptomyces scabiei [7]): 15 mm; zone of inhibition at 0.4 µg/disc (Streptomyces scabiei [13]): 11 mm
CCC[C@@H]1C[C@@H](C(=O)N[C@@H]([C@H]2O[C@H](SC)[C@H](O)[C@@H](O)[C@H]2O)[C@@H](C)O)N(C)C1 [LINCOMYCIN]	40 mm	–	inactive	–	–	–	–	inactive	34 mm	–	–	–	–	diameter of the inhibition zone (DIZ) [2]: inactive; zone of inhibition at 4 µg/disc (Streptomyces alboniger [10]): 40 mm; zone of inhibition at 4 µg/disc (Streptomyces alboniger [11]): 12 mm; zone of inhibition at 0.4 µg/disc (Streptomyces alboniger [6]): 18 mm; zone of inhibition at 0.04 µg/disc (Streptomyces scabiei [7]): 20 mm
N=C(N)NCC(O)CC(O)(C(=O)O)[C@@H]1O[C@@H](N2C=C(CO)C(N)=NC2O)C=C[C@@H]1NC(=O)[C@@H](N)CO (stereo not given in full) [MILDIOMYCIN]	–	28 mm	inactive	–	inactive	inactive	inactive	–	12 mm	inactive	–	11 mm	22 mm	diameter of the inhibition zone (DIZ) (Streptomyces scabiei [1]): inactive
CO[C@@H]1[C@@H](OC(N)=O)[C@@H](O)[C@H](Oc2ccc3c(O)c(NC(=O)c4ccc(O)c(CC=C(C)C)c4)c(=O)oc3c2C)OC1(C)C [NOVOBIOCIN]	44 mm	39 mm	inactive	–	–	inactive	inactive	–	28 mm	–	26 mm	14 mm	18 mm	zone of inhibition at 4 µg/disc (Streptomyces alboniger [11]): 21 mm; zone of inhibition at 0.4 µg/disc (Streptomyces alboniger [6]): 11 mm; zone of inhibition at 0.4 µg/disc (Streptomyces scabiei [13]): 17 mm
CN(C)[C@@H]1C(O)=C(C(N)=O)C(=O)[C@@]2(O)C(O)=C3C(=O)c4c(O)cccc4[C@@](C)(O)[C@H]3[C@H](O)[C@@H]12 [OXYTETRACYCLINE]	37 mm	–	inactive	–	inactive	–	inactive	–	13 mm	inactive	13 mm	16 mm	34 mm	diameter of the inhibition zone (DIZ) [2]: inactive; zone of inhibition at 0.04 µg/disc (Streptomyces scabiei [7]): 10 mm
COc1ccc(C[C@H](N)C(=O)N[C@H]2[C@@H](O)[C@H](n3cnc4c(N(C)C)ncnc43)O[C@@H]2CO)cc1 [PUROMYCIN]	–	20 mm	inactive	inactive	inactive	inactive	inactive	inactive	–	inactive	–	–	–	diameter of the inhibition zone (DIZ) (Streptomyces scabiei [1]): inactive
CO[C@H]1/C=C/O[C@@]2(C)Oc3c(C)c(O)c4c(O)c(cc(O)c4c3C2=O)NC(=O)/C(C)=C\C=C\[C@H](C)[C@H](O)[C@@H](C)[C@@H](O)[C@@H](C)[C@H](OC(C)=O)[C@@H]1C [RIFAMYCIN]	11 mm	12 mm	inactive	inactive	–	inactive	inactive	inactive	–	–	–	–	–	diameter of the inhibition zone (DIZ) [3]: inactive; zone of inhibition at 0.4 µg/disc (Streptomyces alboniger [6]): 21 mm; zone of inhibition at 0.4 µg/disc (Streptomyces alboniger [14]): 11 mm; diameter of the inhibition zone (DIZ) (Streptomyces scabiei [13]): inactive
CN[C@@H]1[C@H](O[C@H]2[C@H](O[C@H]3[C@H](O)[C@@H](O)[C@H](N=C(N)N)[C@@H](O)[C@@H]3N=C(N)N)O[C@@H](C)[C@]2(O)C=O)O[C@@H](CO)[C@H](O)[C@H]1O [STREPTOMYCIN]	28 mm	–	inactive	–	inactive	inactive	inactive	inactive	19 mm	inactive	18 mm	–	–	diameter of the inhibition zone (DIZ) [2]: inactive; zone of inhibition at 0.4 µg/disc (Streptomyces alboniger [14]): 15 mm; zone of inhibition at 0.4 µg/disc (Streptomyces scabiei [13]): 13 mm
C=C(NC(=O)C(=C)NC(=O)c1csc(C2=N[C@@H]3c4csc(n4)[C@H]4NC(=O)c5csc(n5)[C@H]([C@](C)(O)[C@@H](C)O)NC(=O)[C@H]5CSC(=N5)/C(=C/C)NC(=O)[C@H]([C@@H](C)O)NC(=O)c5csc(n5)[C@]3(CC2)NC(=O)[C@H](C)NC(=O)C(=C)NC(=O)[C@H](C)NC(=O)[C@H]([C@@H](C)CC)N[C@@H]2C=Cc3c([C@H](C)O)cc(nc3[C@H]2O)C(=O)O[C@@H]4C)n1)C(N)=O [THIOSTREPTON]	12 mm	24 mm	inactive	inactive	inactive	inactive	inactive	–	–	inactive	–	11 mm	13 mm	zone of inhibition at 0.4 µg/disc (Streptomyces alboniger [14]): 14 mm
